# Results as given in PubChem BioAssay (NCI).
#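 96-well plates; 48 h exposure; 5 concentrations. Endpoints by linear interpolation between flanking doses. Not reached: highest tested concentration assigned. At the GI50, growth is halved. The concentration for full growth arrest is given as TGI.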
# Tests used:
# Assay in all cases: DTP human tumour cell line panel, 48 h
# DU-145 prostate = test system: DU-145 prostate
# HCC-2998 colon = test system: HCC-2998 colon
# OVCAR-3 ovarian = test system: OVCAR-3 ovarian
# NCI/ADR-RES ovarian = test system: NCI/ADR-RES ovarian
# MOLT-4 leukemia = test system: MOLT-4 leukemia
# SNB-19 CNS = test system: SNB-19 CNS
# COLO 205 colon = test system: COLO 205 colon
# UACC-257 melanoma = test system: UACC-257 melanoma
# HL-60(TB) leukemia = test system: HL-60(TB) leukemia
# A498 renal = test system: A498 renal
# SK-OV-3 ovarian = test system: SK-OV-3 ovarian
# CCRF-CEM leukemia = test system: CCRF-CEM leukemia
# 786-0 renal = test system: 786-0 renal
# SN12C renal = test system: SN12C renal
# SNB-75 CNS = test system: SNB-75 CNS
# ACHN renal = test system: ACHN renal
# HCT-116 colon = test system: HCT-116 colon
# CAKI-1 renal = test system: CAKI-1 renal
# HOP-62 NSCLC = test system: HOP-62 NSCLC
# U251 CNS = test system: U251 CNS
# SF-268 CNS = test system: SF-268 CNS
# HS 578T breast = test system: HS 578T breast
# SF-539 CNS = test system: SF-539 CNS
# EKVX NSCLC = test system: EKVX NSCLC
# M14 melanoma = test system: M14 melanoma
# BT-549 breast = test system: BT-549 breast
# SK-MEL-28 melanoma = test system: SK-MEL-28 melanoma
# SK-MEL-5 melanoma = test system: SK-MEL-5 melanoma
# MDA-MB-435 = test system: MDA-MB-435
# NCI-H460 lung = test system: NCI-H460 lung
# OVCAR-4 ovarian = test system: OVCAR-4 ovarian
# HT29 colon = test system: HT29 colon
# TK-10 renal = test system: TK-10 renal
# SR leukemia = test system: SR leukemia
# RXF 393 renal = test system: RXF 393 renal
# A549 NSCLC = test system: A549 NSCLC
# PC-3 prostate = test system: PC-3 prostate
# OVCAR-5 ovarian = test system: OVCAR-5 ovarian
# K-562 leukemia = test system: K-562 leukemia
# NCI-H23 lung = test system: NCI-H23 lung
# UACC-62 melanoma = test system: UACC-62 melanoma
# HCT-15 colon = test system: HCT-15 colon
# MDA-MB-231 breast = test system: MDA-MB-231 breast
# NCI-H522 lung = test system: NCI-H522 lung
# SW-620 colon = test system: SW-620 colon
# KM12 colon = test system: KM12 colon
# IGROV1 ovarian = test system: IGROV1 ovarian
# SF-295 CNS = test system: SF-295 CNS
# NCI-H226 lung = test system: NCI-H226 lung
# RPMI-8226 leukemia = test system: RPMI-8226 leukemia
# UO-31 renal = test system: UO-31 renal
# LOX IMVI melanoma = test system: LOX IMVI melanoma
# T-47D breast = test system: T-47D breast
# MCF7 breast = test system: MCF7 breast
# OVCAR-8 ovarian = test system: OVCAR-8 ovarian
# HOP-92 NSCLC = test system: HOP-92 NSCLC
# MALME-3M melanoma = test system: MALME-3M melanoma
# SK-MEL-2 melanoma = test system: SK-MEL-2 melanoma
structure (smiles),measurement,setting,value
CC1=C2[C@@H](CC1)[C@]1(C)O[C@@](c3ccccc3)(C[C@H]1OC(=O)CO)[C@H]2OC(=O)/C=C/c1ccccc1,GI50,DU-145 prostate,16.6 µM
same,TGI,DU-145 prostate,34.5 µM
same,GI50,HCC-2998 colon,15.2 µM
same,TGI,HCC-2998 colon,31.6 µM
same,GI50,OVCAR-3 ovarian,15 µM
same,TGI,OVCAR-3 ovarian,30.6 µM
same,GI50,NCI/ADR-RES ovarian,348 nM
same,TGI,NCI/ADR-RES ovarian,16 µM
same,GI50,MOLT-4 leukemia,13 µM
same,TGI,MOLT-4 leukemia,45.1 µM
same,GI50,SNB-19 CNS,22.1 µM
same,TGI,SNB-19 CNS,59.8 µM
same,GI50,COLO 205 colon,16 µM
same,TGI,COLO 205 colon,33.6 µM
same,GI50,UACC-257 melanoma,22.6 µM
same,TGI,UACC-257 melanoma,49.9 µM
same,GI50,HL-60(TB) leukemia,7.43 µM
same,TGI,HL-60(TB) leukemia,27.4 µM
same,GI50,A498 renal,96.6 nM
same,TGI,A498 renal,478 nM
same,GI50,SK-OV-3 ovarian,19 µM
same,TGI,SK-OV-3 ovarian,44.8 µM
same,GI50,CCRF-CEM leukemia,16.9 µM
same,TGI,CCRF-CEM leukemia,56.9 µM
same,GI50,786-0 renal,5.23 µM
same,TGI,786-0 renal,25.6 µM
same,GI50,SN12C renal,1140 nM
same,TGI,SN12C renal,30.2 µM
same,GI50,SNB-75 CNS,14.2 µM
same,TGI,SNB-75 CNS,53.6 µM
same,GI50,ACHN renal,44.6 nM
same,TGI,ACHN renal,5.61 µM
same,GI50,HCT-116 colon,15.4 µM
same,TGI,HCT-116 colon,31.6 µM
same,GI50,CAKI-1 renal,12.5 µM
same,TGI,CAKI-1 renal,41.4 µM
same,GI50,HOP-62 NSCLC,17.1 µM
same,TGI,HOP-62 NSCLC,37.3 µM
same,GI50,U251 CNS,13.9 µM
same,TGI,U251 CNS,28.1 µM
same,GI50,SF-268 CNS,2780 nM
same,TGI,SF-268 CNS,32.5 µM
same,GI50,HS 578T breast,30.9 nM
same,TGI,HS 578T breast,961 nM
same,GI50,SF-539 CNS,16.9 µM
same,TGI,SF-539 CNS,35.8 µM
same,GI50,EKVX NSCLC,7.99 µM
same,TGI,EKVX NSCLC,41.4 µM
same,GI50,M14 melanoma,15.8 µM
same,TGI,M14 melanoma,39.1 µM
same,GI50,BT-549 breast,487 nM
same,TGI,BT-549 breast,15.8 µM
same,GI50,SK-MEL-28 melanoma,18.1 µM
same,TGI,SK-MEL-28 melanoma,42.2 µM
same,GI50,SK-MEL-5 melanoma,15.3 µM
same,TGI,SK-MEL-5 melanoma,29.7 µM
same,GI50,MDA-MB-435,16.2 µM
same,TGI,MDA-MB-435,35.9 µM
same,GI50,NCI-H460 lung,16 µM
same,TGI,NCI-H460 lung,38.2 µM
same,GI50,OVCAR-4 ovarian,15.2 µM
same,TGI,OVCAR-4 ovarian,43 µM
same,GI50,HT29 colon,15.1 µM
same,TGI,HT29 colon,34.1 µM
same,GI50,TK-10 renal,21.9 µM
same,TGI,TK-10 renal,49.3 µM
same,GI50,SR leukemia,12 µM
same,TGI,SR leukemia,44.8 µM
same,GI50,RXF 393 renal,38.8 nM
same,TGI,RXF 393 renal,1310 nM
same,GI50,A549 NSCLC,14.5 µM
same,TGI,A549 NSCLC,38 µM
same,GI50,PC-3 prostate,8.56 µM
same,TGI,PC-3 prostate,31.5 µM
same,GI50,OVCAR-5 ovarian,20.2 µM
same,TGI,OVCAR-5 ovarian,47.4 µM
same,GI50,K-562 leukemia,14 µM
same,TGI,K-562 leukemia,61.9 µM
same,GI50,NCI-H23 lung,17.1 µM
same,TGI,NCI-H23 lung,44.9 µM
same,GI50,UACC-62 melanoma,15.3 µM
same,TGI,UACC-62 melanoma,36 µM
same,GI50,HCT-15 colon,13.3 µM
same,TGI,HCT-15 colon,35.6 µM
same,GI50,MDA-MB-231 breast,19.2 µM
same,TGI,MDA-MB-231 breast,49.5 µM
same,GI50,NCI-H522 lung,16.8 µM
same,TGI,NCI-H522 lung,45.4 µM
same,GI50,SW-620 colon,21.9 µM
same,TGI,SW-620 colon,60 µM
same,GI50,KM12 colon,14.8 µM
same,TGI,KM12 colon,34.7 µM
same,GI50,IGROV1 ovarian,24.3 µM
same,TGI,IGROV1 ovarian,62.4 µM
same,GI50,SF-295 CNS,12.8 µM
same,TGI,SF-295 CNS,31.7 µM
same,GI50,NCI-H226 lung,16.6 µM
same,TGI,NCI-H226 lung,37.2 µM
same,GI50,RPMI-8226 leukemia,12.8 µM
same,TGI,RPMI-8226 leukemia,43.7 µM
same,GI50,UO-31 renal,618 nM
same,TGI,UO-31 renal,27.6 µM
same,GI50,LOX IMVI melanoma,15.9 µM
same,TGI,LOX IMVI melanoma,32.3 µM
same,GI50,T-47D breast,9.37 µM
same,TGI,T-47D breast,48.8 µM
same,GI50,MCF7 breast,8.86 µM
same,TGI,MCF7 breast,32.1 µM
same,GI50,OVCAR-8 ovarian,354 nM
same,TGI,OVCAR-8 ovarian,19.9 µM
same,GI50,HOP-92 NSCLC,13.7 µM
same,TGI,HOP-92 NSCLC,29.7 µM
same,GI50,MALME-3M melanoma,20.1 µM
same,TGI,MALME-3M melanoma,42.8 µM
same,GI50,SK-MEL-2 melanoma,16.8 µM
same,TGI,SK-MEL-2 melanoma,38.4 µM
